Reference: paper PMC3945637 (Frontiers in Pharmacology, 2014)
Where “and” joins values, the source holds several entries; their conditions need not be identical. Equal entries are not always repeated. Where two headings read alike, the source gives them in different places. Peptide text beside a SMILES is read from it.

Key:
[1] = target: T1, rabbit B2R-green fluorescent protein (B2R-GFP) (Oryctolagus cuniculus, UniProt Q28642); assay: [3H]BK binding competition to B2R-GFP stably expressed in intact HEK 293 cells; settings: for IC50 for B2R-GFP relative to unlabeled BK (fold greater IC50 / lower affinity): [3H]BK binding competition, vs BK; for [3H]BK binding to B2R-GFP log(IC50) ± SE: log of IC50, 3 nM [3H]BK, 0 °C, with peptidase inhibitors incl. captopril, HEK 293 cells
T1 construct: expressed in transfected cells
T1 sequence (Q28642 1-367): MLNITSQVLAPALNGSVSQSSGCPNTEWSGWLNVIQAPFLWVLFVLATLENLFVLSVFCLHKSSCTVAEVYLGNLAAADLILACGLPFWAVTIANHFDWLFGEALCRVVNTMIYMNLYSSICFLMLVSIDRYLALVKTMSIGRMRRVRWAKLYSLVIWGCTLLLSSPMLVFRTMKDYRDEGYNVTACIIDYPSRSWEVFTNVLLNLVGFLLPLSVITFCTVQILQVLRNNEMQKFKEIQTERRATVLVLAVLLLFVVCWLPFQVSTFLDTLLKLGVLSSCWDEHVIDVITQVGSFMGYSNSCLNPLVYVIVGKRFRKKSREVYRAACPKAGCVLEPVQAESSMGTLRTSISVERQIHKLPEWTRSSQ
Description: (§1) Affinity for the B2R was evaluated using a radioligand binding competition assay performed at 0 °C in the presence of peptidase inhibitors that included captopril ([Houle et al., 2000]). […] Other HEK 293a cells that transiently expressed human recombinant ACE were used to perform a [^3H]enalaprilat binding assay as described ([Koumbadinga et al., 2010]; the peACE vector was a gift from Prof. P. Corvol, Paris, France).
(§2) Results are presented as mean ± SEM. Radioligand binding data were fitted by non-linear regression to a one-site competition equation using a least-square method (Prism 4.0, GraphPad Software Inc., San Diego, CA, USA) and IC50 values calculated from this procedure. The same computer program was used to draw concentration-effect curves (least square fitting of sigmoidal dose-response equation with variable slope) and to derive contractile EC50 values. The qualitative effect of treatments on the distribution of the B2R-GFP fluorescent protein (either located at the plasma membrane or submitted to internalization) was evaluated for each HEK 293 cell in large microphotographic records and proportion of affected cells were compared using the χ^2 statistics to determine drug effect on the subcellular receptor distribution.

[2] = target: T2, BK B2R (human umbilical vein rings) (Homo sapiens, UniProt P30411); assay: Human isolated umbilical vein contractility assay; type: cell-based; settings: for +Peptidase inhibitor log(EC50) ± SE / Control (DMSO vehicle) log(EC50) ± SE: log of contractile EC50; for Control (DMSO vehicle) log(EC50) ± SE: no peptidase inhibitor, paired tissues; for reduction of contractile potency by Plummer's inhibitor: Plummer's inhibitor vs control tissues; for decrease of apparent contractile potency by ACE blockade: enalaprilat 1 μM vs paired control tissues; for fold less potent than BK as contractile agent: control conditions, vs BK
T2 construct: from tissue; host or cells: human umbilical vein rings
T2 sequence (P30411 1-391): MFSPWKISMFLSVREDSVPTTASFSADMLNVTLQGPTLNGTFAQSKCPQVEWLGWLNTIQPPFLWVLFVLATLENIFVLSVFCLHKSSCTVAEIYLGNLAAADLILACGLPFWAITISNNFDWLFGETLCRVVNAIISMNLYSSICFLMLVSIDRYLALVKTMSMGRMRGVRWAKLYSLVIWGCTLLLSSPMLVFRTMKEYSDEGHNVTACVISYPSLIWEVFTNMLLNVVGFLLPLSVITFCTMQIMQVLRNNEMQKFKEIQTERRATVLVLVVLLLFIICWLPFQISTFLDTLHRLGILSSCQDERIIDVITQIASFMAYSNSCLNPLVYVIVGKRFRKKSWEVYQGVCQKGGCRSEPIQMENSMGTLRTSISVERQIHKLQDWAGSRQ
Description: The institutional research ethics board (CHU de Québec) approved the anonymous use of human umbilical cord segments obtained after elective cesarean section deliveries. Informed consent was obtained from mothers. […] Tissues were used only once and discarded; controls curves were obtained from other vascular rings from the same vein.
as §2

[3] = target: T3, human B1R (B1R-FLAG) (Homo sapiens, UniProt P46663); assay: [3H]Lys-des-Arg9-BK binding competition to B1R-FLAG transiently expressed in HEK 293a cells; settings: for [3H]Lys-des-Arg9-BK binding to B1R-FLAG log(IC50) ± SE: log of IC50, 1 nM [3H]Lys-des-Arg9-BK, HEK 293a cells
T3 construct: FLAG; expressed in transfected cells
T3 sequence (P46663 1-353): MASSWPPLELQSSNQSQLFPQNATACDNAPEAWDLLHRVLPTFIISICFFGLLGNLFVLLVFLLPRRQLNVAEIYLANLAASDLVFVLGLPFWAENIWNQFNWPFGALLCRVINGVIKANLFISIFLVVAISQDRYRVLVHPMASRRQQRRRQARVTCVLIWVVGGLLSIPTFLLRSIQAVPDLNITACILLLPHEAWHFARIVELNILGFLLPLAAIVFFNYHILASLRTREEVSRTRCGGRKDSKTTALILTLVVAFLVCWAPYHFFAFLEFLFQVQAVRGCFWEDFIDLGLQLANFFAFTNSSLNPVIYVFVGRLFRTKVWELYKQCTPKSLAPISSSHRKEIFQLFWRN

[4] = target: human recombinant ACE (Homo sapiens, UniProt P12821); assay: [3H]enalaprilat binding competition to recombinant ACE transiently expressed in HEK 293a cells; parameters: expressed in transfected cells; host or cells: HEK 293a cells, transient expression (peACE vector, gift from Prof. P. Corvol); settings: for fold lesser affinity vs. BK for ACE: [3H]enalaprilat binding competition; for [3H]enalaprilat binding to ACE log(IC50) ± SE: log of IC50, 2 nM [3H]enalaprilat, HEK 293a cells
Description: as §1, §2

[5] = enalaprilat 1 μM, 30 min before agonist

Chain of human recombinant ACE (P12821 30-1306): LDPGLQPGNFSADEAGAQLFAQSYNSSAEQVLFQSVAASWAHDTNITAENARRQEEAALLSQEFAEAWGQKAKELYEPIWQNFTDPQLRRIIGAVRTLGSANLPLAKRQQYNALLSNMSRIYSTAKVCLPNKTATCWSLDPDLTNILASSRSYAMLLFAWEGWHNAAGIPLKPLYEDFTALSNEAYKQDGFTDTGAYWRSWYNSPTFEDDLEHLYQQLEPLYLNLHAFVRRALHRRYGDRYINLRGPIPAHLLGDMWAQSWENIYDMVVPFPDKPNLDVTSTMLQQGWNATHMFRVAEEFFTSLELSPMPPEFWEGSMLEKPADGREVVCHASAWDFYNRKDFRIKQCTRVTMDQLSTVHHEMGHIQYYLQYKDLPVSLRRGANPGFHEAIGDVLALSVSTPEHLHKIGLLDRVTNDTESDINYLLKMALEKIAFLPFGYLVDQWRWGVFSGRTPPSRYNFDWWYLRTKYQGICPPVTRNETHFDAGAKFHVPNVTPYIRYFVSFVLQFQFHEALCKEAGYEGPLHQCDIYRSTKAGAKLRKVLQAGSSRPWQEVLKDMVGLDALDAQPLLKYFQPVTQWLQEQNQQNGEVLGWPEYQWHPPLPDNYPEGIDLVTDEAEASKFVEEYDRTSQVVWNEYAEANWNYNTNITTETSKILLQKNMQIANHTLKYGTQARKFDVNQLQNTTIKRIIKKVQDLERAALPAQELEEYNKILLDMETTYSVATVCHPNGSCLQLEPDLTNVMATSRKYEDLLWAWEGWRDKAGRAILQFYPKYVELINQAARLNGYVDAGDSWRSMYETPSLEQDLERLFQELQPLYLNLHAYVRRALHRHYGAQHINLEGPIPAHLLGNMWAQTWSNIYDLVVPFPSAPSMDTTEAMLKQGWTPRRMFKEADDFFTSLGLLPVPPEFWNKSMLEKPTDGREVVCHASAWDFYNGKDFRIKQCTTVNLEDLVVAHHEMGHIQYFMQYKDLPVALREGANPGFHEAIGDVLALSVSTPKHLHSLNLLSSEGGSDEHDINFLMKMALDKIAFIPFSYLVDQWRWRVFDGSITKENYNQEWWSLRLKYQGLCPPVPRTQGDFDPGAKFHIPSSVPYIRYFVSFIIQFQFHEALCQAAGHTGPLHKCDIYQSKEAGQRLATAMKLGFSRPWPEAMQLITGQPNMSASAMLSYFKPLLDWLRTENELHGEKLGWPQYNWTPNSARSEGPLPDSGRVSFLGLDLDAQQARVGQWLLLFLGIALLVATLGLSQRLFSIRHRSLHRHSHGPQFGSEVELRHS

Row | Structure (SMILES) | IC50 for B2R-GFP relative to unlabeled BK (fold greater IC50 / lower affinity) [1] [fold] | [3H]BK binding to B2R-GFP log(IC50) ± SE [1] | Control (DMSO vehicle) log(EC50) ± SE [2] | [3H]Lys-des-Arg9-BK binding to B1R-FLAG log(IC50) ± SE [3] | fold lesser affinity vs. BK for ACE [4] [fold] | [3H]enalaprilat binding to ACE log(IC50) ± SE [4] | fold less potent than BK as contractile agent [2] [fold] | +Peptidase inhibitor log(EC50) ± SE [2, 5] | reduction of contractile potency by Plummer's inhibitor [2] | decrease of apparent contractile potency by ACE blockade [2] | other results
1 | N=C(N)NCCC[C@H](NC(=O)[C@H](Cc1ccccc1)NC(=O)[C@@H]1CCCN1C(=O)[C@H](CO)NC(=O)[C@H](Cc1ccccc1)NC(=O)CNC(=O)[C@@H]1CCCN1C(=O)[C@@H]1CCCN1C(=O)[C@H](CCCNC(=N)N)NC(=O)[C@@H]1CCCN1C(=O)[C@@H](N)CCCNC(=N)N)C(=O)O [Arg-Pro-BK] (H-RPRPPGFSPFR-OH; N-terminus and C-terminus assumed) | 1.6 | -7.61 ± 0.09 | -7.39 ± 0.06 | – | – | – | – | – | – | – | effect of DPP-IV inhibitor NVP-DPP728 on apparent contractile potency (in words) ([2]; NVP-DPP728 1 μM): did not show a loss of apparent potency; effect of aminopeptidase inhibitor amastatin on contractile effect (in words) ([2]; amastatin 3 μM): failed to modify; +Peptidase inhibitor log(EC50) ± SE ([2]; NVP-DPP728 1 μM): -7.29 ± 0.03; +Peptidase inhibitor log(EC50) ± SE ([2]; amastatin 3 μM): -7.35 ± 0.07
2 | N=C(N)NCCC[C@H](NC(=O)[C@H](Cc1ccccc1)NC(=O)[C@@H]1CCCN1C(=O)[C@H](CO)NC(=O)[C@H](Cc1ccccc1)NC(=O)CNC(=O)[C@@H]1CCCN1C(=O)[C@@H]1CCCN1C(=O)[C@@H](N)CCCNC(=N)N)C(=O)O [BK, Bradykinin, reference compound] (H-RPPGFSPFR-OH) | – | – | – | – | – | – | – | – | did not affect | not changed | –
3 | NC(N)=NCCC[C@H](NC(=O)[C@H](Cc1ccccc1)NC(=O)[C@@H]1CCCN1C(=O)[C@H](CO)NC(=O)[C@H](Cc1ccccc1)NC(=O)CNC(=O)[C@@H]1CCCN1C(=O)[C@@H]1CCCN1C(=O)[C@@H](N)CCCN=C(N)N)C(=O)O [BK, Bradykinin, reference compound] (H-RPPGFSPFR-OH) | – | – | – | – | – | – | – | – | – | – | IC50 [3]: > 10000 nM; IC50 [4]: 1550 nM; IC50 [1]: 15.8 nM

The next lines start with results.

Row | IC50 for B2R-GFP relative to unlabeled BK (fold greater IC50 / lower affinity) [1] [fold] | [3H]BK binding to B2R-GFP log(IC50) ± SE [1] | Control (DMSO vehicle) log(EC50) ± SE [2] | [3H]Lys-des-Arg9-BK binding to B1R-FLAG log(IC50) ± SE [3] | fold lesser affinity vs. BK for ACE [4] [fold] | [3H]enalaprilat binding to ACE log(IC50) ± SE [4] | fold less potent than BK as contractile agent [2] [fold] | +Peptidase inhibitor log(EC50) ± SE [2, 5] | Structure (SMILES) | reduction of contractile potency by Plummer's inhibitor [2] | decrease of apparent contractile potency by ACE blockade [2] | other results
4 | – | -5.11 ± 0.16 | -6.59 ± 0.07 | >-5 | 2.23 | -5.46 ± 0.11 | 14.1 | -5.55 ± 0.06 | C[C@H](NC(=O)[C@H](CCCNC(=N)N)NC(=O)[C@H](Cc1ccccc1)NC(=O)[C@@H]1CCCN1C(=O)[C@H](CO)NC(=O)[C@H](Cc1ccccc1)NC(=O)CNC(=O)[C@@H]1CCCN1C(=O)[C@@H]1CCCN1C(=O)[C@@H](N)CCCNC(=N)N)C(=O)N1CCC[C@H]1C(=O)O [BK-Ala-Pro] (H-RPPGFSPFRAP-OH; N-terminus and C-terminus assumed) | – | – | –
5 | 29 | -6.34 ± 0.11 | -6.67 ± 0.08 | -5.12 ± 0.10 | – | – | – | – | N=C(N)NCCC[C@H](NC(=O)[C@H](CCCNC(=N)N)NC(=O)[C@H](Cc1ccccc1)NC(=O)[C@@H]1CCCN1C(=O)[C@H](CO)NC(=O)[C@H](Cc1ccccc1)NC(=O)CNC(=O)[C@@H]1CCCN1C(=O)[C@@H]1CCCN1C(=O)[C@@H](N)CCCNC(=N)N)C(=O)O [BK-Arg] (H-RPPGFSPFRR-OH; N-terminus and C-terminus assumed) | 15 fold | – | IC50 ([3]; competition of [3H]Lys-des-Arg9-BK binding, read-out: IC50 for recombinant human B1R): 7600 nM; +Peptidase inhibitor log(EC50) ± SE ([2]; Plummer's inhibitor 1 μM): -5.49 ± 0.07
6 | 363 | -5.24 ± 0.20 | -6.61 ± 0.11 | >-5 | 3.33 | -5.28 ± 0.22 | 13.5 | -5.34 ± 0.06 | CC(C)C[C@H](NC(=O)[C@H](Cc1c[nH]cn1)NC(=O)[C@H](CCCNC(=N)N)NC(=O)[C@H](Cc1ccccc1)NC(=O)[C@@H]1CCCN1C(=O)[C@H](CO)NC(=O)[C@H](Cc1ccccc1)NC(=O)CNC(=O)[C@@H]1CCCN1C(=O)[C@@H]1CCCN1C(=O)[C@@H](N)CCCNC(=N)N)C(=O)O [BK-His-Leu] (H-RPPGFSPFRHL-OH; N-terminus and C-terminus assumed) | – | 18 fold and 18.3 fold | –
